Bounds are passed on as bounds.

For this assay, the system named is NCI-H295R. Nature of the assay: IC50 (antiproliferative, ATP content). The following applies: 48 h. In short, it runs like this: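 Compounds were pin-transferred at 8 final concentrations between 0.6 nM and 46 µM onto adrenocortical carcinoma cells (1500 per well, 1536-well plates) that had been cultured overnight in serum-free DMEM with ITS. Plates then stood 48 h at 37 °C, 5% CO2, and ATP was detected by CellTiter-Glo luminescence. IC50 was derived from logistic fits of normalised signal, and compounds giving no concentration response were noted as above the top dose.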
With `CC(C)Cn1cnc2c(N)nc3ccccc3c21`, the IC50 (as a rule, the midpoint of a concentration-inhibition curve) is greater than 46 µM. `Cl.Clc1ccc(C(OCCN2CCCCC2)c2ccccc2)cc1` (configuration not stated) yielded an IC50 greater than 46 µM.

With `C[C@@H]1CCC[C@H](C)N1.Cl`, the IC50 was greater than 46 µM. Next, `CC(C)NC(C)Cc1ccc(I)cc1.Cl` (configuration not stated): greater than 46 µM. Next, `O=C(O)/C=C\C(=O)O.c1ccc2nc(N3CCNCC3)ccc2c1`: greater than 46 µM. Next, `CC1(C)O[C@@H]2C[C@H]3[C@@H]4CCC5=CC(=O)C=C[C@]5(C)[C@H]4[C@@H](O)C[C@]3(C)[C@]2(C(=O)CO)O1`: greater than 46 µM; `CCc1ccc(S(=O)(=O)O)cc1`: greater than 46 µM. In turn, `NC(=O)NO` came in with an IC50 greater than 46 µM.

Regarding `CC1CCc2c(N3CCC(O)CC3)c(F)cc3c(=O)c(C(=O)O)cn1c23` (configuration not stated), the IC50 is greater than 46 µM. Under `CC(C)=CCC/C(C)=C/CC/C(C)=C/CC/C=C(\C)CC/C=C(\C)CCC=C(C)C` stands greater than 46 µM; under `CCCCCCCCCCCCCCCCCC(=O)O`, greater than 46 µM; under `CCn1cc(C(=O)O)c(=O)c2cnc(N3CCCC3)nc21`, greater than 46 µM.

In turn, `CCN(CC)CCC(=O)N1c2ccccc2Sc2ccc(C(F)(F)F)cc21` came in with an IC50 greater than 46 µM. The molecule `CO/N=C1\CN(c2nc3c(cc2F)c(=O)c(C(=O)O)cn3C2CC2)CC1CN.CS(=O)(=O)O` (configuration not stated) gave an IC50 greater than 46 µM. `CCN(CCO)CCCC(C)Nc1ccnc2cc(Cl)ccc12.O=S(=O)(O)O` (configuration not stated) came in with an IC50 greater than 46 µM. Next, `CCCCCCCCCCCCCC(=O)OCC(COP(=O)([O-])OCC[N+](C)(C)C)OC(=O)CCCCCCCCCCCCC` (configuration not stated): greater than 46 µM; `CC(=O)Oc1cc(C(F)(F)F)ccc1C(=O)O`: greater than 46 µM; `NNCCc1ccccc1.O=S(=O)(O)O`: greater than 46 µM. Under `CCN(CC)CCNC(C(=O)OCCC(C)C)c1ccccc1` (configuration not stated) stands greater than 46 µM; under `CN1C(C(=O)Nc2ccccn2)=C(O)c2ccccc2S1(=O)=O`, greater than 46 µM. In turn, `O=[N+]([O-])/N=C1\NCCN1Cc1ccc(Cl)nc1` yielded an IC50 greater than 46 µM. Next, `N#CCC(=O)NN`: greater than 46 µM. `Cc1cc(=O)[nH]c(=S)[nH]1`: the IC50 was greater than 46 µM.

In the case of `CCN(CC)C(C)C(=O)c1ccccc1.Cl` (configuration not stated), the IC50 was greater than 46 µM.

In turn, `O=C(O)CN(CCOCCOCCN(CC(=O)O)CC(=O)O)CC(=O)O` displayed an IC50 greater than 46 µM.

On to `Nc1nc(=O)n([C@@H]2CS[C@H](CO)O2)cc1F`, for which the IC50 is greater than 46 µM. Take `Cc1ncc([N+](=O)[O-])n1CCO`: the IC50 was greater than 46 µM. Next, `O=[C@](N[C@H]2C[C@@H]2[C@]3=CC=CC=C3)[C@H]1NC(CC1)=O`: greater than 46 µM; `CCC(C(=O)NC(N)=O)c1ccccc1` (configuration not stated): greater than 46 µM; `CCOC(=O)O[C@]1(C(=O)COC(=O)CC)CC[C@H]2[C@@H]3CCC4=CC(=O)C=C[C@]4(C)[C@H]3[C@@H](O)C[C@@]21C`: greater than 46 µM. Molecule `CCCCN1CCCC[C@H]1C(=O)Nc1c(C)cccc1C.Cl` had an IC50 greater than 46 µM.

`Nc1ccc(S(=O)(=O)Nc2ncccn2)cc1`: the IC50 was greater than 46 µM. The molecule `COc1ncnc(NS(=O)(=O)c2ccc(N)cc2)c1OC` came in with an IC50 greater than 46 µM. For `CCC(Cc1c(I)cc(I)c(N)c1I)C(=O)O` (configuration not stated), the IC50 was greater than 46 µM. In the case of `CS(=O)(=O)CCNCc1ccc(-c2ccc3ncnc(Nc4ccc(OCc5cccc(F)c5)c(Cl)c4)c3c2)o1`, the IC50 was greater than 46 µM.

Molecule `Cc1cccc(C)c1NC(=O)CN1CCCCCC1` displayed an IC50 greater than 46 µM.

For the molecule `COCC(C)N(C(=O)CCl)c1c(C)csc1C` (configuration not stated), the IC50 is greater than 46 µM.

`COc1ccc(C(=O)CC(=O)c2ccc(C(C)(C)C)cc2)cc1` returned a concentration for half-maximal inhibition (IC50) greater than 46 µM. Next, `CCCCCCOC(=O)c1cccnc1`: greater than 46 µM. Molecule `CC(C)CCON=O` returned an IC50 greater than 46 µM.

With `COCCCOc1ccnc(CS(=O)c2nc3ccccc3[n-]2)c1C.[Na+]` (configuration not stated), the IC50 was greater than 46 µM. As to `[S]=[Sb](=[S])[S][Sb](=[S])=[S]`, the IC50 is greater than 46 µM.

In the case of `O=C(CCCN1CCC(O)(c2ccc(Br)cc2)CC1)c1ccc(F)cc1`, the IC50 was greater than 46 µM. Consider `BrCCCBr.CN(C)CCCCCCN(C)C`, for which the half-maximal inhibitory concentration (IC50) was greater than 46 µM. Under `O=[C@]([C@H]2N(CCC)CCCC2)NC1=C(C)C=CC=C1C.Cl` stands greater than 46 µM; under `CCCCc1ncc(/C=C(\Cc2cccs2)C(=O)O)n1Cc1ccc(C(=O)O)cc1.CS(=O)(=O)O`, greater than 46 µM.

In turn, `CCCCNc1cc(C(=O)O)cc(S(N)(=O)=O)c1Oc1ccccc1` showed an IC50 greater than 46 µM.

Take `O=C(COc1ccc(Cl)cc1)OCCNC12CC3CC(CC(C3)C1)C2`: the IC50 is greater than 46 µM.

Molecule `COc1ccccc1O` returned an IC50 greater than 46 µM. Next, `CCCC1C(=O)N2C(N(C)C)=Nc3ccc(C)cc3N2C1=O` (configuration not stated): greater than 46 µM. Under `NP(N)(=O)NC(=O)c1ccc(F)cc1` stands greater than 46 µM; under `COc1cc(C(=O)NCCCCCC(=O)O)cc(OC)c1OC`, greater than 46 µM.

The molecule `COc1ccc(C(=O)CCC(=O)O)c2ccccc12` yielded an IC50 greater than 46 µM. In turn, `CN1CCN(C(=O)O[C@H]2c3nccnc3C(=O)N2c2ccc(Cl)cn2)CC1` displayed an IC50 greater than 46 µM. As to `O=C(O)CCCCCCCC(=O)O`, the IC50 was greater than 46 µM.

Consider `C=C1CC[C@@]2(O)[C@H]3Cc4ccc(O)c5c4[C@@]2(CCN3CC2CC2)[C@H]1O5`, for which the IC50 is greater than 46 µM. For `Cc1cc(CC(=O)[O-])n(C)c1C(=O)c1ccc(Cl)cc1.[Na+]`, the IC50 was greater than 46 µM.

`c1cccc2N\C=C/c12` registered an IC50 greater than 46 µM. Next, `Cl.O=C(O)CC/C=C\CC[C@@H]1[C@@H](N2CCCCC2)[C@@H](O)C[C@@H]1OCc1ccc(-c2ccccc2)cc1`: greater than 46 µM; `CC(C)(C)NC(=O)[C@H]4CC[C@@H]3[C@]4(C)CC[C@H]1[C@H]3CC[C@H]2NC(=O)\C=C/[C@]12C`: greater than 46 µM; `Nc1ccncc1`: greater than 46 µM. `CCCOC(=O)c1ccc(N)cc1` gave an IC50 greater than 46 µM. Next, `CC(=O)OO`: greater than 46 µM; `NC12CC3CC(CC(C3)C1)C2`: greater than 46 µM; `N[C@H](C(=O)O)c1ccc(O)cc1`: greater than 46 µM. For the molecule `CCCCCCCCCCCCCCCCCCOCC(O)CO` (configuration not stated), the IC50 is greater than 46 µM.

`Cl.NC1C[C@H]1c1ccccc1` (some centres not stated): the IC50 is greater than 46 µM. `COc1ccc(C(=O)c2c(C)n(CCN3CCOCC3)c3ccccc23)cc1` registered an IC50 greater than 46 µM.

With `O=C(NCN1CCOCC1)c1cnccn1`, the IC50 is greater than 46 µM. Under `CCC(=O)O[C@]1(C(=O)CCl)[C@@H](C)C[C@H]2[C@@H]3CCC4=CC(=O)C=C[C@]4(C)[C@@]3(F)[C@@H](O)C[C@@]21C` stands greater than 46 µM; under `CC(CN1c2ccccc2Sc2cccnc21)N(C)C.Cl` (configuration not stated), greater than 46 µM. For `C[C@]12C[C@H]3S[C@H]3C[C@@H]1CC[C@@H]1[C@@H]2CC[C@]2(C)[C@@H](O)CC[C@@H]12`, the IC50 was greater than 46 µM. Regarding `O=c1[nH]cc(N(CCCl)CCCl)c(=O)[nH]1`, the IC50 is greater than 46 µM.

Regarding `Cc1ccc(S(=O)(=O)O)cc1.c1cc2c(c(NC3=NCCN3)c1)CCCC2`, the IC50 was greater than 46 µM. In turn, `CCC1(c2ccccc2)C(=O)NCNC1=O` returned an IC50 greater than 46 µM. Under `O=C1[O][Bi]([OH])[O]c2ccccc21` stands greater than 46 µM; under `COc1cc(NC(C)CCCN)c2ncccc2c1.O=P(O)(O)O.O=P(O)(O)O` (configuration not stated), greater than 46 µM; under `NS(=O)(=O)c1cc2c(cc1Cl)NC(C1CC3C=CC1C3)NS2(=O)=O` (configuration not stated), greater than 46 µM.

For the molecule `CC1(C)O[C@@H]2CC3C4C[C@H](F)C5=CC(=O)C=C[C@]5(C)C4[C@@H](O)C[C@]3(C)[C@]2(C(=O)CO)O1` (some centres not stated), the half-inhibitory concentration (IC50) was greater than 46 µM. In turn, `CC(=O)Oc1ccc2c3c1O[C@H]1[C@@H](OC(C)=O)C=C[C@H]4[C@@H](C2)N(C)CC[C@@]341` yielded an IC50 greater than 46 µM. Under `CS(=O)(=O)Nc1ccc([N+](=O)[O-])cc1Oc1ccccc1` stands greater than 46 µM; under `COC(=O)[C@H](Cc1ccccc1)NC(=O)[C@@H](N)CC(=O)O`, greater than 46 µM; under `NC(=O)c1ncn([C@@H]2O[C@H](CO)[C@@H](O)[C@H]2O)c1O`, greater than 46 µM. Consider `Brc1c(NC2=NCCN2)ccc2nccnc12`, for which the IC50 is greater than 46 µM. Under `Nc1nc(=O)[nH]cc1F` stands greater than 46 µM; under `CCOC(=O)c1ccccc1O`, greater than 46 µM. Next, `COCCc1ccc(OCC(O)CNC(C)C)cc1.COCCc1ccc(OCC(O)CNC(C)C)cc1.O=C(O)[C@H](O)[C@@H](O)C(=O)O` (configuration not stated): greater than 46 µM; `COc1cc(OC)c(C(=O)CCCN2CCCC2)c(OC)c1.Cl`: greater than 46 µM. Next, `Oc1ccc(OCc2ccccc2)cc1`: greater than 46 µM; `C=CCCCCCCCCC(=O)OC`: greater than 46 µM; `O=C(O)CN(CC(=O)O)Cc1cc2c(cc1O)Oc1ccc(CN(CC(=O)O)CC(=O)O)c(O)c1C21OC(=O)c2ccccc21` (configuration not stated): greater than 46 µM. On to `CCCN1C[C@H](CSC)C[C@@H]2c3cccc4[nH]cc(c34)C[C@H]21.CS(=O)(=O)O`, for which the IC50 is greater than 46 µM. Consider `CCCOC(=O)c1ccccc1`, for which the IC50 was greater than 46 µM. Next, `COc1ccc(NS(=O)(=O)c2ccc(N)cc2)nn1`: greater than 46 µM; `O=C(O)/C=C\C(=O)O.O=C(O)/C=C\C(=O)O.c1cc(CN2CCCCC2)cc(OCCCNc2nc3ccccc3s2)c1`: greater than 46 µM. Under `N=C(N)NCCCC[C@@H]1NC(=O)CCSSC[C@@H](C(N)=O)NC(=O)[C@@H]2CCCN2C(=O)[C@H](Cc2c[nH]c3ccccc23)NC(=O)[C@H](CC(=O)O)NC(=O)CNC1=O` stands greater than 46 µM; under `COc1ccc2cc([C@H](C)CO)ccc2c1`, greater than 46 µM.

The record behind these values is the supplement of paper PMC3493320.
